The source of these data is US5521160A, “Sulfuric acid esters of sugar alcohols” (Hoffmann-La Roche Inc., priority 1994, dated 1996).

Where a name gives a salt, the structure may show the parent alone. Read-outs that look alike come from different tables or passages of the source.

For one assay, the target named is T1, thrombin (Homo sapiens, UniProt P00734).
T1 construct: purchased Roche, Basle (Thrombin Reagent)
As to the kind of experiment: biochemical. It is filed as biochemical.

The next assay deals with rat smooth muscle cells. Nature of the assay: Antiproliferative activity (growth inhibition of rat smooth muscle cells, relative to heparin). Format: cell-based. Particulars: 100 μg/ml, 48 hours, relative to heparin 100 μg/ml in same experiment.
The target of another assay is T2, Factor Xa (Bos taurus, UniProt P00743).
T2 sequence (P00743 41-180 limits assumed): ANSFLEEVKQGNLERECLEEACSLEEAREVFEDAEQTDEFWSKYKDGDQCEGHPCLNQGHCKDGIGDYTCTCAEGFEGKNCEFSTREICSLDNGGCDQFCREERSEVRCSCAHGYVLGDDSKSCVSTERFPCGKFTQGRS
As to the kind of experiment: Inhibition of Factor Xa in the chromogenic substrate assay (blood coagulation inhibition). It is filed as biochemical.

Setting [1] is: chromogenic substrate S-2238, antithrombin III, plasma, pH 8.4, 37° C.; read-out: Anticoagulative Activity IC50 Thrombin.
Setting [2] is: chromogenic substrate S-2222, antithrombin III, plasma; read-out: Anticoagulative Activity IC50 Factor Xa.
[3] abbreviates: read-out: Anticoagulative Activity IC50 Thrombin; chromogenic substrate S-2238, antithrombin III, plasma, pH 8.4, 37° C.
[4] abbreviates: read-out: Anticoagulative Activity IC50 Factor Xa; chromogenic substrate S-2222, antithrombin III, plasma.

Description for Factor Xa: (§1) The blood coagulation-inhibiting activity was determined as follows:
Inhibition of Thrombin or Factor Xa in the Chromogenic Substrate Assay (Teien. et al., Thrombosis Research 10, 399-410 (1977)): The determination was effected in a Cobas-Bio centrifugal automatic spectrophotometer. The buffer solution used consisted of 50 mM Tris buffer, 180 mM NaCl, 7.5 mM EDTA Na2, 1% PEG 6000 and 0.02% Tween 80, pH 8.4. The test solution consisted of 50 μl of buffer, 30 μl of antithrombin III (1 U/ml, Kabi Diagnostica) and 20 μl of plasma which contained various concentrations of test compounds.
The inhibition of Factor Xa was measured in the same manner using a solution of Factor Xa (2.8 nkat/ml) and 2 mM S-2222 (Bz-CO-Ile-Glu-Arg-NH.pNA, Kabi Diagnostica) in water in place of thrombin or S-2238.
Description for rat smooth muscle cells: The antiproliferative activity of a substance is expressed as the ri value which is a comparative value to the corresponding activity of heparin and which was determined in cell cultures as follows: rat smooth muscle cells were applied to cell culture plates in a density of 8×10^3 cells/well (medium: DMEM with 10% FCS. Cultivation at 37° C. and 5% CO2). After 4 hours the number of adhered cells was determined and the compounds to be tested (100 μg/ml, dissolved in H2 O) were added. The controls were a) cells to which test compound was not added and b) heparin (100 μg/ml). Subsequently, the cells were incubated for 48 hours and thereafter the cell count was determined once more.
The inhibition i of the cell growth, i.e. the percent reduction in the growth rate of the cells compared to the control, was calculated from these values: [formula] the growth rate μ being calculated as [formula] in which Z is the number of cells.
Finally, ri --the relative inhibitory activity--which expresses the activity of a substance (at 100 μg/ml) in comparison to the activity of heparin in the same concentration in the same experiment, was calculated: [formula]
Description for thrombin: as §1
Inhibition of Thrombin or Factor Xa in the Chromogenic Substrate Assay (Teien. et al., Thrombosis Research 10, 399-410 (1977)): The determination was effected in a Cobas-Bio centrifugal automatic spectrophotometer. The buffer solution used consisted of 50 mM Tris buffer, 180 mM NaCl, 7.5 mM EDTA Na2, 1% PEG 6000 and 0.02% Tween 80, pH 8.4. The test solution consisted of 50 μl of buffer, 30 μl of antithrombin III (1 U/ml, Kabi Diagnostica) and 20 μl of plasma which contained various concentrations of test compounds. 30 μl of sample solution and 20 μl of water with 180 μl of thrombin (1 U/ml, Thrombin Reagent Roche Basle) were added to the test cuvette in the automatic analyzer. After incubation at 37° C. for 240 seconds, 60 μl of S-2238 (H-D-Phe-Pip-Arg-NH.pNA, Kabi Diagnostica, Mondal, Sweden, 0.75 mM in water) and 20 μl of water were added. The liberation of pNA (p-nitroaniline) was followed during 60 seconds at 405 nm in 10 second intervals in comparison to water as the blank.

As usually defined, the IC50 is the concentration at which inhibition is half-maximal. With `O=C(Nc1ccc(OC[C@@H](OS(=O)(=O)O)[C@H](OS(=O)(=O)O)[C@H](OS(=O)(=O)O)[C@H](COS(=O)(=O)O)OS(=O)(=O)O)cc1)Nc1ccc(OC[C@@H](OS(=O)(=O)O)[C@H](OS(=O)(=O)O)[C@H](OS(=O)(=O)O)[C@H](COS(=O)(=O)O)OS(=O)(=O)O)cc1` [Example 65, 1,3-bis-[4-(2,3,4,5,6-penta-O-sulfo-D-galactit-6-yloxy)-phenyl]-urea decasodium salt], the IC50 at thrombin (setting [1]) and on Factor Xa (setting [2]) was above 728 µM each time. The “Antiproliferative Activity ri (relative inhibitory activity compared with heparin)” value in the assay on rat smooth muscle cells was 0.8.

Take `O=[N+]([O-])c1cc(S(=O)(=O)c2ccc(NC[C@H](OS(=O)(=O)O)[C@@H](OS(=O)(=O)O)[C@H](OS(=O)(=O)O)[C@@H](COS(=O)(=O)O)OS(=O)(=O)O)c([N+](=O)[O-])c2)ccc1NC[C@H](OS(=O)(=O)O)[C@@H](OS(=O)(=O)O)[C@H](OS(=O)(=O)O)[C@@H](COS(=O)(=O)O)OS(=O)(=O)O` [Example 67, N,N'-bis-(2,3,4,5,6-penta-O-sulfo-D-glucit-1-yl)-2,2'-dinitro-4,4'-sulfonyldianiline decasodium salt]: the IC50 at thrombin (setting [3]) and on Factor Xa (setting [4]) was above 682 µM each time. Also, the “Antiproliferative Activity ri (relative inhibitory activity compared with heparin)” value in the assay with rat smooth muscle cells is on record as 1.0.

Consider `O=C(Nc1ccc(Cc2ccc(NC(=O)c3ccc(NC[C@H](OS(=O)(=O)O)[C@@H](OS(=O)(=O)O)[C@H](OS(=O)(=O)O)[C@@H](COS(=O)(=O)O)OS(=O)(=O)O)c([N+](=O)[O-])c3)cc2)cc1)c1ccc(NC[C@H](OS(=O)(=O)O)[C@@H](OS(=O)(=O)O)[C@H](OS(=O)(=O)O)[C@@H](COS(=O)(=O)O)OS(=O)(=O)O)c([N+](=O)[O-])c1` [Example 68, 4,4'-bis-(2,3,4,5,6-penta-O-sulfo-D-glucit-1-ylamino)-3,3'-dinitro-N,N'-(4,4'-methylene-diphenyl)-dibenzamide decasodium salt], for which the IC50 at thrombin (setting [3]) and at Factor Xa (setting [4]) was above 604 µM each time. For the same molecule, the “Antiproliferative Activity ri (relative inhibitory activity compared with heparin)” value in the assay with rat smooth muscle cells came to 1.1.

Take `O=C(NC[C@H](OS(=O)(=O)O)[C@@H](OS(=O)(=O)O)[C@H](OS(=O)(=O)O)[C@@H](COS(=O)(=O)O)OS(=O)(=O)O)c1ccc(/C=C/c2ccc(C(=O)NC[C@H](OS(=O)(=O)O)[C@@H](OS(=O)(=O)O)[C@H](OS(=O)(=O)O)[C@@H](COS(=O)(=O)O)OS(=O)(=O)O)cc2Cl)cc1` [Example 85, (E)-2-chlorostilbene-4,4'-dicarboxylic acid bis-(2,3,4,5,6-penta-O-sulfo-D-glucit-1-ylamide) decasodium salt]: the IC50 on thrombin (setting [1]) and at Factor Xa (setting [2]) was above 699 µM in each case. Moreover, the “Antiproliferative Activity ri (relative inhibitory activity compared with heparin)” value in the assay with rat smooth muscle cells is on record as 2.1.

As to `C[C@H](OS(=O)(=O)O)[C@H](OS(=O)(=O)O)[C@@H](OS(=O)(=O)O)[C@H](CNC(=O)c1ccc(/C=C\c2ccc(C(=O)NC[C@H](OS(=O)(=O)O)[C@H](OS(=O)(=O)O)[C@@H](OS(=O)(=O)O)[C@H](C)OS(=O)(=O)O)cc2)cc1)OS(=O)(=O)O` [Example 93, (Z)-stilbene-4,4'-dicarboxylic acid bis-(2,3,4,5,6-penta-O-sulfo-L-rhamnit-1-ylamide) octasodium salt], the IC50 at thrombin (setting [1]) and at Factor Xa (setting [2]) was above 831 µM each time. Also, the “Antiproliferative Activity ri (relative inhibitory activity compared with heparin)” value in the assay with rat smooth muscle cells is on record as 1.0.

For heparin [reference compound], the “Anticoagulative Activity IC50 Thrombin” value at thrombin (chromogenic substrate S-2238, antithrombin III, plasma, pH 8.4, 37° C.) amounted to 1.9 µg/mL. Besides, the “Antiproliferative Activity ri (relative inhibitory activity compared with heparin)” value in the assay on rat smooth muscle cells is 1.0. Moreover, the “Anticoagulative Activity IC50 Factor Xa” value at Factor Xa (chromogenic substrate S-2222, antithrombin III, plasma) is 2.7 µg/mL.
